Like-named read-outs stand apart in the source and are kept apart here.
What was measured:
Bioavailability = conditions: in vivo
Caki-1 = assay: CellTiter-Glo proliferation and viability assay; format: cell-based; conditions: Homo sapiens
NCI-H1436 = assay: CellTiter-Glo proliferation and viability assay; format: cell-based; conditions: Homo sapiens
DU-145 = assay: CellTiter-Glo proliferation and viability assay; format: cell-based; conditions: Homo sapiens
SK-Mel-5 = assay: CellTiter-Glo proliferation and viability assay; format: cell-based; conditions: Homo sapiens
[1] = system: phospho-MEK and phospho-ERK in HCT-116 cells harboring B-Raf wild type and K-Ras mutation; assay: Immunoblotting (Western Blot) analysis, paradoxical pathway activation; format: cell-based, human
Protocol: Testing is carried out at doses of 0, and 11 serial dilutions ranging from 0.17 to 10000 nM. Protein lysates are generated by treatment of the cells with RIPA lysis buffer from Millipore. Western blotting analysis is performed substantially as described in Yadav et al, Molecular Carcinogenesis, 2011, 50: 346-52. Briefly, SDS-PAGE is performed on cell lysates containing 20 ug of total protein using 4-20% Novex® tri-glycine gradient gels (Invitrogen). Protein is transferred onto […] nitrocellulose membranes using NuPAGE® Transfer Buffer (Invitrogen) and 10% methanol at 100 V, 4° C. for 1 hr. Generally, the primary antibody is used at 1:1000 dilution, and secondary antibody at 1:20000 dilution. Proteins are detected using the Odyssey Infrared Imaging System (Li-COR Biosciences). Antibodies against ERK1/2, phospho-ERK1/2, phospho-MEK1/2, and actin are obtained from Cell Signaling Technology.
Testing is carried out at doses of 0, and 11 serial dilutions ranging from 0.17 to 10000 nM. The phospho-MEK and phospho-ERK activities were evaluated by Immunoblotting (Western Blot) analysis.

[2] = system: HCT-116 K-Ras mutant B-Raf wild type xenograft; assay: HCT-116 xenograft tumor model, efficacy; format: in vivo, rat; conditions: nude rats, oral twice a day 30 mg/kg for 21 days
Protocol: (§1) Briefly, 10×10^6 cells (A375) or 5×10^6 cells (HCT-116) in a 1:1 medium and matrigel mix (0.2 mL total volume) are implanted by subcutaneous injection in the hind leg of nude female rats (NIH model No. NIHRNU-M from Taconic). A total of 8 rats in each group are used for the efficacy study, and a total of 3-4 rats in each group are used for a pharmacodynamic study. The Eli Lilly and Company Animal Care and Use Committee approved all the experimental protocols. […] Tumor growth and body weight are monitored over time to evaluate activity and signs of toxicity. Bidimensional measurements of tumors are performed twice a week and tumor volumes are calculated based on mid-axis length and mid-axis width. Tumor volume data are transformed to a log scale to equalize variance across time and treatment groups. The log volume data are analyzed with a two-way repeated measures analysis of variance by time and treatment using the MIXED® procedures in SAS® software (version 8.2). The correlation model for the repeated measures is spatial power. Treated groups are compared to the control group at each time point. The MIXED® procedure is also used separately for each treatment group to calculate adjusted means and standard errors at each time point. […]

AsPC-1 = assay: CellTiter-Glo proliferation and viability assay; format: cell-based; conditions: Homo sapiens
KATOIII = assay: CellTiter-Glo proliferation and viability assay; format: cell-based; conditions: Homo sapiens, KATO III
LNCaP-Clone-FGC = assay: CellTiter-Glo proliferation and viability assay; format: cell-based; conditions: Homo sapiens
[3] = system: phospho-MEK and phospho-ERK in A375 xenograft; assay: A375 xenograft single dose pharmacodynamic study; format: in vivo, rat; conditions: two hours post dose, Western Blot
Protocol: as §1

CaOV-3 = assay: CellTiter-Glo proliferation and viability assay; format: cell-based; conditions: Homo sapiens
SK-Mel-28 = assay: CellTiter-Glo proliferation and viability assay; format: cell-based; conditions: Homo sapiens
HepG2 = assay: CellTiter-Glo proliferation and viability assay; format: cell-based; conditions: Homo sapiens
THP-1 = assay: CellTiter-Glo proliferation and viability assay; format: cell-based; conditions: Homo sapiens
HCT-116 = assay: CellTiter-Glo proliferation and viability assay; conditions: Homo sapiens

bioavailability (Bioavailability): low | IC50 (NCI-H1436; read-out: Abs IC50): 8.35 nM | IC50 (NCI-H1436; read-out: Rel IC50): 12.7 nM | IC50 (DU-145; read-out: Abs IC50): 5.18 nM | IC50 (DU-145; read-out: Rel IC50): 0.66 nM | IC50 (SK-Mel-5; read-out: Abs IC50): 0.13 nM | IC50 (SK-Mel-5; read-out: Rel IC50): 0.06 nM | IC50 (AsPC-1; ASPC1, read-out: Abs IC50): 1.22 nM | IC50 (AsPC-1; ASPC1, read-out: Rel IC50): 0.38 nM | IC50 (LNCaP-Clone-FGC; read-out: Abs IC50): > 20 nM | IC50 (LNCaP-Clone-FGC; read-out: Rel IC50): 2.74 nM | IC50 (SK-Mel-28; SK-MEL-28, read-out: Abs IC50): 0.04 nM | IC50 (SK-Mel-28; SK-MEL-28, read-out: Rel IC50): 0.03 nM | IC50 (SK-Mel-28; SK-Mel-28, B-Raf V600E, melanoma, CellTiter-Glo, read-out: IC50): 29 nM | IC50 (HepG2; read-out: Abs IC50): 0.06 nM | IC50 (HepG2; read-out: Rel IC50): 0.03 nM | IC50 (THP-1; read-out: Abs IC50): 0.08 nM | IC50 (THP-1; read-out: Rel IC50): 0.03 nM | IC50 (HCT-116; HCT-116, read-out: Abs IC50): 0.72 nM | IC50 (HCT-116; HCT-116, read-out: proliferation and viability IC50): 178 nM
SMILES: CNc1ncc2cc(-c3cc(NC(=O)NCCC(C)(C)C)c(F)cc3C)c(C)nc2n1 [Example 1, 1-(3,3-Dimethylbutyl)-3-(2-fluoro-4-methyl-5-(7-methyl-2-(methylamino)pyrido[2,3-d]pyrimidin-6-yl)phenyl)urea]
IC50 (Caki-1; read-out: Abs IC50): 2.91 nM | IC50 (Caki-1; read-out: Rel IC50): 2.03 nM | paradoxical pathway activation ([1]; HCT-116, B-Raf wild type and K-Ras mutation): minimal paradoxical pathway activation | doses that substantially eliminate phospho-ERK signal ([1]; HCT-116, Western Blot): above 41 nM | tumor growth [2]: statistically significant tumor growth inhibition | IC50 (KATOIII; read-out: Abs IC50): 0.33 nM | IC50 (KATOIII; read-out: Rel IC50): 0.33 nM | phospho-MEK and phospho-ERK activities, PD effect ([3]; single dose 25 mg/kg): almost completely eliminated | phospho-MEK and phospho-ERK, PD effect ([3]; single dose 3.125 to 50 mg/kg): inhibition was observed in all dose groups | IC50 (CaOV-3; read-out: Abs IC50): 9.58 nM | IC50 (CaOV-3; read-out: Rel IC50): 5.32 nM
